Test results taken from patent US11547697B2, “Heterocyclic compounds and uses thereof” (MILLENNIUM PHARMACEUTICALS, INC., priority 2009, dated 2023).
Where two headings read alike, the source gives them in different places.

Columns and labels:
Type in all cases: biochemical
p110δ/p85α = p110δ/p85α (Homo sapiens (Human), UniProt O00329); assay: PI 3-Kinase (human) HTRF assay, p110δ/p85α; settings: read-out: PI3K δ IC50
p110α/p85α = p110α/p85α (Homo sapiens (Human), UniProt P42336); assay: PI 3-Kinase (human) HTRF assay, p110α/p85α
p110γ = p110γ (Homo sapiens (Human), UniProt P48736); assay: PI 3-Kinase (human) HTRF assay, p110γ
p110β/p85α = p110β/p85α (Homo sapiens (Human), UniProt P42338); assay: PI 3-Kinase (human) HTRF assay, p110β/p85α; settings: read-out: PI3K β In Vitro IC50
p110β/p85α, sequence (P42338 whole entry): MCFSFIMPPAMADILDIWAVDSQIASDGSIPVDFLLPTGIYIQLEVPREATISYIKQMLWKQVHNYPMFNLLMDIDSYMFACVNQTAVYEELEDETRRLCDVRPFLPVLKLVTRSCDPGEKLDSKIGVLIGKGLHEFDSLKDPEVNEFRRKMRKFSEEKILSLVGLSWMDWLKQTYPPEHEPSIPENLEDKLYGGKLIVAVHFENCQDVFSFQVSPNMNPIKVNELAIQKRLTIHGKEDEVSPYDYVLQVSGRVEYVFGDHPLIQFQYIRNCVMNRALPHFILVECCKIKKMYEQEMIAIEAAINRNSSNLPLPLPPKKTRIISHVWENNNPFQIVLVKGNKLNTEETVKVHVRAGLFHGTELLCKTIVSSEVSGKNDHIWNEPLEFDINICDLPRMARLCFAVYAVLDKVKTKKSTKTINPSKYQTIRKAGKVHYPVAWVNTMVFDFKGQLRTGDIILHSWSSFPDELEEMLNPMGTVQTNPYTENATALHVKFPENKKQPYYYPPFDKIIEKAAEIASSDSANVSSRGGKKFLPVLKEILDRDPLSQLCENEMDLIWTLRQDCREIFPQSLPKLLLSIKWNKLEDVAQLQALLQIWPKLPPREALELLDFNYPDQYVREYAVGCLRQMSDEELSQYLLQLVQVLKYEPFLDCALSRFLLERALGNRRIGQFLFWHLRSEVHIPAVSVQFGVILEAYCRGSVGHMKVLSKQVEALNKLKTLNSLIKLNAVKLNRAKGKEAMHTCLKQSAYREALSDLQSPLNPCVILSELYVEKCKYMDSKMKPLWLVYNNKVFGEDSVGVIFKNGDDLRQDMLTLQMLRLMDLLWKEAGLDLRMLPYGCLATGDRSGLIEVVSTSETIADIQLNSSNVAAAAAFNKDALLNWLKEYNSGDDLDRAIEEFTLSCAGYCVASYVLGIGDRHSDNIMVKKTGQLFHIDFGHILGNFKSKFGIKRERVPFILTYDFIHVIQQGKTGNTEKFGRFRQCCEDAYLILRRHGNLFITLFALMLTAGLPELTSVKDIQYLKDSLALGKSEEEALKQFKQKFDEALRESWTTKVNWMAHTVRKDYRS
p110β/p85α, sequence (P27986 whole entry partner): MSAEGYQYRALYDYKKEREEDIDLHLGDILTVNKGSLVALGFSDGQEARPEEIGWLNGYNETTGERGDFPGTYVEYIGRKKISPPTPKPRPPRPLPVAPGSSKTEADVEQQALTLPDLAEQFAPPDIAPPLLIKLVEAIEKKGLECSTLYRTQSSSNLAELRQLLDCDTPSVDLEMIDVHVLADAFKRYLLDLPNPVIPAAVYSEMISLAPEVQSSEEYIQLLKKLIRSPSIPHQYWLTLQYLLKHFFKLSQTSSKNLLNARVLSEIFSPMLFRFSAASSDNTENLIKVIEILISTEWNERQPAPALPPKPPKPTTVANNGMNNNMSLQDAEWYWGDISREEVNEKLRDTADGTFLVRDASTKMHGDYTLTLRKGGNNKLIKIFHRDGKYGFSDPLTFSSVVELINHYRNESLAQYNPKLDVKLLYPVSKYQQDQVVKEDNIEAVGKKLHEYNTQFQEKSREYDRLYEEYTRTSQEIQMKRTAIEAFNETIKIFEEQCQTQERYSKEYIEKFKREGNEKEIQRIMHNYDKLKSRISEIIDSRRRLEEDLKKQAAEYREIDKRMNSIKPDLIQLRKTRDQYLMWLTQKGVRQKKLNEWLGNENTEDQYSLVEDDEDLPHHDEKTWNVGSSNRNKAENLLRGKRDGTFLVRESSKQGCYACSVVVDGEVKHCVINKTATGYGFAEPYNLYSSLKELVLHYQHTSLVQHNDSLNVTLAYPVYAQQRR

p110α/p85α, sequence (P42336 whole entry): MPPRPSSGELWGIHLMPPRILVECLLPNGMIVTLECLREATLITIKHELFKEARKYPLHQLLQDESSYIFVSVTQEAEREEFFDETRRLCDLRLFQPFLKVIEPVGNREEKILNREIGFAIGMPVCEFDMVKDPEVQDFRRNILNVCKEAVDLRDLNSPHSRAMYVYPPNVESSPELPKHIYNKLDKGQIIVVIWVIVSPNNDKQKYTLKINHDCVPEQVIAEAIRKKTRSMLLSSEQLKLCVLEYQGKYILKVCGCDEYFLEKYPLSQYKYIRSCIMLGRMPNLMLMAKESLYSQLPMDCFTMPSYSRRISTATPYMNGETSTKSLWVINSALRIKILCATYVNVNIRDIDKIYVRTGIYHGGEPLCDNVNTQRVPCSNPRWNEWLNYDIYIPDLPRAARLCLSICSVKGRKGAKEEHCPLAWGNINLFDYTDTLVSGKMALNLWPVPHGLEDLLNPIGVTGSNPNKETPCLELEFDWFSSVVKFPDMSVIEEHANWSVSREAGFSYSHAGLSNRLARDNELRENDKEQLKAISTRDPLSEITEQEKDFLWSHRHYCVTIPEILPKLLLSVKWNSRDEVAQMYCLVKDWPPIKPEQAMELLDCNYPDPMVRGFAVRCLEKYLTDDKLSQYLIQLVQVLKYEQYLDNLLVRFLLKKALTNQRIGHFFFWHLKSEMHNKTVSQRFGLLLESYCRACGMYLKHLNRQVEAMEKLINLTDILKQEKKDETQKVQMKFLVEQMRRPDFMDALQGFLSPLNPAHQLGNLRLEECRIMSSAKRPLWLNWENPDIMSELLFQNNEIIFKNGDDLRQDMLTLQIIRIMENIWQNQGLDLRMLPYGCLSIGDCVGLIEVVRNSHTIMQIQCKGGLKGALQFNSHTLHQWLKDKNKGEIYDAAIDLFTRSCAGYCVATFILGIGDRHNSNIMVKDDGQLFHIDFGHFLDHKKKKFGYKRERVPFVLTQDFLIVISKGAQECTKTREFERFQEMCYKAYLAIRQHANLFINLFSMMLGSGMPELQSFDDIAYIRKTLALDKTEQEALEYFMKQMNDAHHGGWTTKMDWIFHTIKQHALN
p110α/p85α, sequence (P27986 whole entry partner): as the sequence (P27986 whole entry partner) above
p110δ/p85α, sequence (O00329 whole entry): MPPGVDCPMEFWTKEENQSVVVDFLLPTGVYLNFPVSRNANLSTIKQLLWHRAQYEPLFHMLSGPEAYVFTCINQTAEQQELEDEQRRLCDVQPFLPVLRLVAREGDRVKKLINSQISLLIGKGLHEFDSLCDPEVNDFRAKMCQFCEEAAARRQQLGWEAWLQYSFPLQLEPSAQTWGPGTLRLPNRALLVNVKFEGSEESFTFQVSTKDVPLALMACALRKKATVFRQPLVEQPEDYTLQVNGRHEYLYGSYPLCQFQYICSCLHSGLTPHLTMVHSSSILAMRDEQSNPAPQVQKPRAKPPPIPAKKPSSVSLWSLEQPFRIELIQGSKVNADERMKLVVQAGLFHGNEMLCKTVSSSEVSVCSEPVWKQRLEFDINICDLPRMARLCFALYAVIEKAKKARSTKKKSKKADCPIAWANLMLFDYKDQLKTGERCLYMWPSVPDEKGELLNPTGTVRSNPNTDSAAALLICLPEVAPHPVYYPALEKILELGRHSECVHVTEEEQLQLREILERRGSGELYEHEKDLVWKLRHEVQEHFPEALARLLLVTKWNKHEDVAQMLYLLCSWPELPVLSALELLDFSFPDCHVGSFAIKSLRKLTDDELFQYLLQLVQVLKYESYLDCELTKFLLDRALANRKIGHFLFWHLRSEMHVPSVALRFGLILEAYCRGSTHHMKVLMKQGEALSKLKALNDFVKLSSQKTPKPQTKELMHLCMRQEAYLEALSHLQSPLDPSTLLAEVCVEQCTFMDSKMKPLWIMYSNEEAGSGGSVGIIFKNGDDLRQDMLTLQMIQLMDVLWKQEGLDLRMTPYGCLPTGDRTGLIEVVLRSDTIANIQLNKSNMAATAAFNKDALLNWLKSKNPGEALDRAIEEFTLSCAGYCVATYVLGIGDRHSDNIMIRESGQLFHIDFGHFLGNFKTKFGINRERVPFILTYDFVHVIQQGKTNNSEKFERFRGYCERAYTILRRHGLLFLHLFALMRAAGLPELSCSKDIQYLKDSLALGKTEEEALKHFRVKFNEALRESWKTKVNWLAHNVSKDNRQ
p110δ/p85α, sequence (P27986 whole entry partner): as the sequence (P27986 whole entry partner) above
p110γ, sequence (P48736 whole entry): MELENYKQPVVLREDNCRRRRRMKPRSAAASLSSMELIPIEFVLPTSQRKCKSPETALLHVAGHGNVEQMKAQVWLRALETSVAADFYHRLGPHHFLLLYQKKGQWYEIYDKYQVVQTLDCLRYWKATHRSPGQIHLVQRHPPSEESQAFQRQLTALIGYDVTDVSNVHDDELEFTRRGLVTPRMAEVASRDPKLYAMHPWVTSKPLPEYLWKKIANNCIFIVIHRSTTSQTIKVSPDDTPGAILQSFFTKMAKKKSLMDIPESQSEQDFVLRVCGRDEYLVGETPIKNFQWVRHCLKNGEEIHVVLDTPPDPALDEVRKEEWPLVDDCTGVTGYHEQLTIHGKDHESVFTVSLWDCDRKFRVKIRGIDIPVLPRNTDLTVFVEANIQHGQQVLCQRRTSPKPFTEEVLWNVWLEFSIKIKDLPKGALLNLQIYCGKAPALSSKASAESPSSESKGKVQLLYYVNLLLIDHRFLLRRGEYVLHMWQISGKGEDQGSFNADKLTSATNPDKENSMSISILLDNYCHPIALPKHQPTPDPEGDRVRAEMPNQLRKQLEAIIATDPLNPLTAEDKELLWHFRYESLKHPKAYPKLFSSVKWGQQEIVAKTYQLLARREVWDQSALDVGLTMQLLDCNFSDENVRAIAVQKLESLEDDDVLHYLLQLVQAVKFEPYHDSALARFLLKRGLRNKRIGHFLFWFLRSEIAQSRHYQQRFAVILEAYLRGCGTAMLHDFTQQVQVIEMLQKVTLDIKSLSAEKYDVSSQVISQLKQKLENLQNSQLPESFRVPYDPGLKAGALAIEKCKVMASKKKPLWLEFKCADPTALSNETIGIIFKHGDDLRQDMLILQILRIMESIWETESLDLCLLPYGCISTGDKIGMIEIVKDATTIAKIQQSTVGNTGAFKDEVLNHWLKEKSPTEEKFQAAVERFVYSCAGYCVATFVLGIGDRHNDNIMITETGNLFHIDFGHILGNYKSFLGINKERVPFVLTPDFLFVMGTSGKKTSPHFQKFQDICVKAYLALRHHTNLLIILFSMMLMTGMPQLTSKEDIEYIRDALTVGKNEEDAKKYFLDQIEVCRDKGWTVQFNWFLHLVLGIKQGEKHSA

Compound	IC50 (p110δ/p85α) [µM]	IC50 (p110α/p85α; read-out: PI3K α IC50) [µM]	IC50 (p110γ; read-out: PI3K γ IC50) [µM]	IC50 (p110δ/p85α; in vitro) [µM]	IC50 (p110α/p85α; in vitro, read-out: PI3K α IC50) [µM]	IC50 (p110α/p85α; read-out: PI3K α In Vitro IC50) [µM]	IC50 (p110β/p85α) [µM]	IC50 (p110γ; read-out: PI3K γ In Vitro IC50) [µM]
Nc1nc2cc(-c3ccc4nccc(CCN5CCOCC5)c4c3)ccc2o1 [compound 27]	< 10	< 1	< 0.1	–	–	–	–	–
Nc1nc2cc(-c3ccc4nccc(N5CCOCC5)c4c3)ccc2o1 [compound 28]	< 1	< 0.1	< 0.1	–	–	–	–	–
CN1CCN(c2cc(-c3ccnc4ccc(-c5ccc6oc(N)nc6c5)cc34)ccn2)CC1 [compound 30]	< 0.1	< 0.1	< 0.1	–	–	–	–	–
Nc1nc2cc(-c3ccc4nccc(NCCN5CCOCC5)c4c3)ccc2o1 [compound 33]	< 1	< 0.1	< 1	–	–	–	–	–
CN1CCC(Oc2ncnc3ccc(-c4ccc5oc(N)nc5c4)cc23)CC1 [compound 34]	< 1	< 0.1	< 0.1	–	–	–	–	–
Nc1nc2cc(-c3ccc4ncc(-c5cccnc5)n4c3)ccc2o1 [compound 37]	< 0.1	< 0.1	< 0.1	–	–	–	–	–
Nc1nc2cc(-c3ccc4ncc(C#CC5CC5)n4c3)ccc2o1 [compound 39]	< 0.1	< 0.1	< 0.1	–	–	–	–	–
CN1CCN(c2cc(-c3cnc4ccc(-c5ccc6oc(N)nc6c5)cn34)ccn2)CC1 [compound 43]	< 0.1	< 0.1	< 0.1	–	–	–	–	–
Nc1nc2ccc(-c3ccc4ncc(C(=O)N5CCOCC5)n4c3)cc2s1 [compound 125]	< 10	< 1	< 1	–	–	–	–	–
CCN(CC)CCCn1cnc2ccc(-c3ccc4oc(N)nc4c3)cc2c1=O [compound 281]	–	–	–	< 10	< 1	–	–	–
Nc1nc2cc(-c3ccc4ncc(C(=O)N5CCn6cncc6C5)n4c3)ccc2o1 [compound 493]	–	–	–	–	–	< 0.1	< 1	< 10
Nc1nc2cc(-c3ccc4ncc(C(=O)N5CC6(C5)OCCO6)n4c3)ccc2o1 [compound 494]	–	–	–	–	–	< 0.1	< 10	< 1
C[C@@H]1COCCN1C(=O)c1cnc2ccc(-c3ccc4oc(N)nc4c3)cn12 [compound 495]	–	–	–	–	–	< 0.1	< 10	< 1
Nc1nc2c(-c3ccc4ncc(C(=O)N5CCOCC5)n4c3)cccc2o1 [compound 496]	–	–	–	–	–	< 1	< 10	< 10
Nc1nc2cc(-c3ccc4ncc(C(=O)N5CC6CCC(C5)O6)n4c3)ccc2o1 [compound 504]	–	–	–	–	–	< 1	< 10	< 0.1

Further lines, results first:

IC50 (p110δ/p85α) [µM]	IC50 (p110α/p85α; read-out: PI3K α IC50) [µM]	IC50 (p110γ; read-out: PI3K γ IC50) [µM]	IC50 (p110δ/p85α; in vitro) [µM]	IC50 (p110α/p85α; in vitro, read-out: PI3K α IC50) [µM]	IC50 (p110α/p85α; read-out: PI3K α In Vitro IC50) [µM]	IC50 (p110β/p85α) [µM]	IC50 (p110γ; read-out: PI3K γ In Vitro IC50) [µM]	Compound
< 0.1	< 0.1	< 0.1	–	–	–	–	–	Nc1nc2cc(-c3ccc4ncnc(N5CCC(O)CC5)c4c3)ccc2o1 [compound 29]
< 0.1	< 0.1	< 0.1	–	–	–	–	–	Nc1nc2cc(-c3ccc4nccc(-c5cccnc5)c4c3)ccc2o1 [compound 31]
< 0.1	< 0.1	< 0.1	–	–	–	–	–	Nc1nc2cc(-c3ccc4ncc(-c5cn[nH]c5)n4c3)ccc2o1 [compound 38]
< 1	< 0.1	< 0.1	–	–	–	–	–	Nc1nc2cc(-c3ccc4ncc(C(=O)Nc5cccnc5)n4c3)ccc2o1 [compound 190]
–	–	–	–	–	< 10	< 10	< 10	CC(=O)Nc1n[nH]c2cc(-c3ccc4oc(N)nc4c3)ccc12 [compound 430]
–	–	–	–	–	< 10	< 1	< 0.1	Nc1nc2cc(-c3cc(F)c4oc(N)nc4c3)ccc2o1 [compound 432]
–	–	–	–	–	< 10	< 10	< 0.1	CC(=O)Nc1nc2cc(-c3cc(F)c4oc(N)nc4c3)ccc2s1 [compound 435]
–	–	–	–	–	< 10	< 1	< 1	Nc1nc2cc(-c3ccc4sc(N)nc4c3)cc(F)c2o1 [compound 437]
–	–	–	–	–	< 1	< 1	< 0.1	Cc1cc(-c2ccc3nc(N)oc3c2)cn2c(C(=O)N3CCOCC3)cnc12 [compound 449]
–	–	–	–	–	< 0.1	< 10	< 0.1	Nc1nc2cc(-c3ccc4ncc(C(=O)N5CC(F)C5)n4c3)ccc2o1 [compound 468]
